Assay results published in PubChem BioAssay (NCI).
Values joined by “and” are separate entries in the source; they are usually repeats but may differ in a detail not shown here. Equal entries are not always repeated.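 Five concentrations, 48 hours, 96-well plates. GI50 = concentration required for 50% inhibition of growth. TGI denotes the concentration required for complete inhibition of growth.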

Experiments:
Assay in all cases: NCI tumour cell line growth inhibition, 48 h
M14 melanoma = tested on: M14 melanoma
SK-MEL-2 melanoma = tested on: SK-MEL-2 melanoma
NCI-H522 lung = tested on: NCI-H522 lung
SK-MEL-28 melanoma = tested on: SK-MEL-28 melanoma
SNB-19 CNS = tested on: SNB-19 CNS
HL-60(TB) leukemia = tested on: HL-60(TB) leukemia
NCI-H226 lung = tested on: NCI-H226 lung
K-562 leukemia = tested on: K-562 leukemia
NCI/ADR-RES ovarian = tested on: NCI/ADR-RES ovarian
UO-31 renal = tested on: UO-31 renal

Row | Structure (SMILES) | GI50 (M14 melanoma) | TGI (M14 melanoma) | GI50 (SK-MEL-2 melanoma) [µM] | TGI (SK-MEL-2 melanoma) | GI50 (NCI-H522 lung) [µM] | TGI (NCI-H522 lung) | GI50 (SK-MEL-28 melanoma) | TGI (SK-MEL-28 melanoma) | GI50 (SNB-19 CNS) [µM] | TGI (SNB-19 CNS) [µM] | GI50 (HL-60(TB) leukemia) [µM] | TGI (HL-60(TB) leukemia) | GI50 (NCI-H226 lung) [µM] | TGI (NCI-H226 lung) | GI50 (K-562 leukemia) [µM] | TGI (K-562 leukemia) [µM] | GI50 (NCI/ADR-RES ovarian) [µM] | TGI (NCI/ADR-RES ovarian) [µM] | GI50 (UO-31 renal) [µM] | TGI (UO-31 renal)
1 | Cc1[nH]c2ccccc2c1CCNCc1ccc(/C=C/C(=O)NO)cc1 | < 0.0116 µM | 0.111 µM | < 0.012 | 0.0532 µM | < 0.01 | 0.0324 µM | < 0.0115 µM | 0.0728 µM | 0.0244 | 0.323 | < 0.01 | 3.16 µM | 0.0305 | 0.172 µM | < 0.01 | 0.0833 | 0.0211 | 0.267 | 0.0129 | 0.0637 µM
2 | O=C(N/N=C/c1cc([N+](=O)[O-])ccc1O)c1cccc2ccccc12 | 2.87 µM | 68.4 µM | 6.69 | > 100 µM | 3.47 | 22 µM | 3.11 µM | 80.8 µM | 7.65 | > 100 | 2.27 | 6.02 µM | 2.45 | 11.5 µM | 3.26 | > 100 | 2.32 | 51.6 | 1.8 | 19.5 µM
3 | COc1ccc(-c2nn(-c3cccc(Cl)c3)cc2-c2cc(-c3ccccc3)nc(N)n2)cc1 | 2.69 µM | 13.2 µM | 3.23 | 10.7 µM | 1.88 | 3.53 µM | 12.4 µM | 42.1 µM | 12.7 | 43.8 | 2.53 | 6.21 µM | 4.99 | 22 µM | 1.92 | 5.37 | 8.72 | 31 | 10 | 26.5 µM
4 | CCCCN(CCCC)c1ccc(C(=NC(C)CCCN(CC)CC)c2ccc(N(C)C)cc2)cc1 (stereo not drawn) | 0.873 µM | 1.72 µM | 0.814 | 1.81 µM | 0.706 | 1.56 µM | 0.939 µM | 1.92 µM | 1.14 | 2.82 | 1.01 | 2.03 µM | 1.18 | 3.06 µM | 0.153 | 0.549 | 0.893 | 1.94 | 0.713 | 1.42 µM
5 | CCN1C(=O)N(CC)C2C1NN=c1s/c(=C\c3cc4ccccc4[nH]3)c(=O)n12 (stereo not drawn) | 0.0237 µM | > 100 µM | – | 33.9 µM | < 0.0164 | 1.02 µM | 2.77 µM | > 83 µM | 0.055 | 15.8 | < 0.0117 | < 0.0191 µM | 0.186 | 61.6 µM | < 0.01 | > 100 | 0.0213 | 2.3 | 0.0523 | 10.4 µM
6 | CC(C)N1C(NNC(=O)c2cnccn2)=NS(=O)(=O)c2ccccc21 | > 100 µM | > 100 µM | > 100 | > 100 µM | > 100 | > 100 µM | > 100 µM | > 100 µM | > 100 | > 100 | > 100 | > 100 µM | > 100 | > 100 µM | > 100 | > 100 | > 100 | > 100 | > 100 | > 100 µM
7 | CCCCNC(=O)NS(=O)(=O)c1ccc(N2N=C(c3cc(C)ccc3C)CC2c2cc(OC)c(OC)c(OC)c2)cc1 (stereo not drawn) | 2.14 µM | 5.97 µM | 2.2 | 4.84 µM | 2.39 | 7.75 µM | 1.97 µM | 4.73 µM | 2.75 | 12.7 | 2.87 | 7.62 µM | 3.29 | 13 µM | 3.14 | 12.7 | 2.95 | 11.4 | 3.07 | 12.3 µM
8 | FC(F)(F)c1ccc(-c2cnc(Cl)nc2NCc2cc(C(F)(F)F)cc(C(F)(F)F)c2)cc1 | 4.44 µM | > 100 µM | 2.35 | 5.28 µM | 2.69 | 9.86 µM | 3.93 µM | > 100 µM | 2.44 | > 100 | 2.6 | 6.73 µM | 2.61 | > 100 µM | 3.77 | > 100 | 2.98 | > 100 | 2.51 | > 100 µM
9 | Nc1nc(N)c(N=O)c(OCC2CCCCC2)n1 | 11.8 µM | > 100 µM and 52.2 µM | 8.52 | 32.8 µM and 24.6 µM | 10 | > 73.3 µM and 50.7 µM | 13.2 µM | > 100 µM and 76.5 µM | – | > 100 | 10.7 | 53.8 µM and 58.9 µM | 6.65 | > 100 µM and 46.5 µM | – | > 100 | – | > 100 | 3.24 | 39.1 µM and 39.7 µM
10 | O=C(c1cccnc1)c1cc(-c2ccccn2)c(=O)n2ccccc12 | > 100 µM | > 100 µM | > 100 | > 100 µM | > 100 | > 100 µM | > 100 µM | > 100 µM | > 100 | > 100 | > 100 | > 100 µM | > 100 | > 100 µM | > 100 | > 100 | > 100 | > 100 | > 100 | > 100 µM
11 | OCC1OC(n2cnc3c(=S)nc[nH]c32)C(O)C1O (stereo not drawn) | 1.15 µM | > 2500 µM | > 100 | > 2500 µM | 9.27 | > 2500 µM | > 62.5 µM | > 2500 µM | > 65.2 | > 1960 | 3.82 | > 2210 µM | > 31.1 | > 2500 µM | 1.04 | > 2500 | 3.52 | > 2500 | – | > 2500 µM
12 | O=C(CN1CCN(c2ccccc2)CC1)N1CCN(c2nnc(-c3ccc(Cl)cc3)c(-c3ccc(Cl)cc3)n2)CC1 | 9.99 µM | > 100 µM | 12.4 | 42.2 µM | 10.7 | 66.6 µM | 56.2 µM | > 100 µM | 37.2 | > 100 | 3.16 | 19.4 µM | > 100 | > 100 µM | 3.32 | > 100 | 8.05 | > 100 | 2.04 | > 100 µM
13 | c1ccc(CSc2nnc3c4ccccc4c4ccccc4c3n2)cc1 | – | > 100 µM | – | > 79.7 µM | – | 97.9 µM | – | > 100 µM | – | > 78.1 | – | > 100 µM | – | > 100 µM | – | > 100 | – | > 100 | – | > 100 µM
14 | S=C(Nc1cc(Cl)c(Cl)cc1Cl)SCc1ccccc1 | – | > 100 µM | – | > 100 µM | – | 59.5 µM | – | > 100 µM | – | 96.9 | – | 50.4 µM | – | 42.4 µM | – | 45.1 | – | 54.6 | – | > 100 µM
15 | c1ccc(P(CCP(CCP(c2ccccc2)c2ccccc2)c2ccccc2)CCP(c2ccccc2)c2ccccc2)cc1 (stereo not drawn) | > 10 µM and 4.18 µM | > 10 µM | – | > 10 µM | – | 5.13 µM | > 10 µM and 2.01 µM | > 10 µM | > 10 | > 10 | – | 3.69 µM | – | > 10 µM | – | > 10 | – | > 10 | – | > 10 µM
16 | Nc1n[nH]c2ccc([C@@H]3Nc4ccc5[nH]ncc5c4[C@H]4C5C=CC(C5)[C@@H]34)cc12 (stereo partly drawn) | 0.231 µM | 1.13 µM | 4.14 | 28 µM | 0.173 | 12.7 µM | 1.59 µM | 31.9 µM | 0.59 | 61.3 | 0.321 | 4.39 µM | 0.636 | 10.6 µM | 0.0992 | > 100 | 0.298 | 2.28 | 0.769 | 31.7 µM
